Here are results for 4 molecules from ChEMBL document CHEMBL5030555.

Assay [1] concerns Vero. Description: Inhibition of Escherichia coli Stx2a using african green monkey Vero cell assessed as inhibition of depurination incubated pretreated cells for 1 hr measured after 2 hrs of toxin addition. In kind it is cell-based. The conditions noted are these: time 3.0 hrs.
Assay [2] concerns Vero. The assay is described as follows: Protection against Escherichia coli Stx2a-induce d african green monkey Vero cell death assessed as protection of cell viability incubated pretreated cells for 1 hr measured after 2 hrs of toxin addition. The class given is functional, cell-based. The conditions noted are these: Chlorocebus sabaeus, time 3.0 hrs.

Structures are written as SMILES. The source made the active and inactive calls. The calls are words filed in the database; no cut-off is given here.

For `Cc1ccccc1-c1ccc(C(=O)O)s1`, the inhibition result in assay [1] is “inactive”. Moreover, in assay [2], the result was inactive.

`Cc1cc(C)c(-c2ccc(C(=O)O)s2)c(C)c1`: the inhibition entry in assay [1] was “inactive”. In addition, the outcome in assay [2] was inactive.

With `CCc1ccccc1-c1ccc(C(=O)O)s1`, the inhibition entry in assay [1] is “inactive”. In addition, the outcome in assay [2] was inactive.

In the case of `Cc1cccc(C)c1-c1ccc(C(=O)O)s1`, the inhibition entry in assay [1] was “inactive”. Besides, the outcome in assay [2] was inactive.
